Earlier results in article PMC12530842, “Potent, Selective, and Drug‐Like G Protein‐Coupled Receptor Kinase 5 and 6 Inhibitors: Design, Synthesis, and X‐Ray Structural Studies” (Chemmedchem, 2025).

Target: T1, GRK2 (Homo sapiens, UniProt P25098)
T1 construct: made in house
T1 sequence (P25098 1-689): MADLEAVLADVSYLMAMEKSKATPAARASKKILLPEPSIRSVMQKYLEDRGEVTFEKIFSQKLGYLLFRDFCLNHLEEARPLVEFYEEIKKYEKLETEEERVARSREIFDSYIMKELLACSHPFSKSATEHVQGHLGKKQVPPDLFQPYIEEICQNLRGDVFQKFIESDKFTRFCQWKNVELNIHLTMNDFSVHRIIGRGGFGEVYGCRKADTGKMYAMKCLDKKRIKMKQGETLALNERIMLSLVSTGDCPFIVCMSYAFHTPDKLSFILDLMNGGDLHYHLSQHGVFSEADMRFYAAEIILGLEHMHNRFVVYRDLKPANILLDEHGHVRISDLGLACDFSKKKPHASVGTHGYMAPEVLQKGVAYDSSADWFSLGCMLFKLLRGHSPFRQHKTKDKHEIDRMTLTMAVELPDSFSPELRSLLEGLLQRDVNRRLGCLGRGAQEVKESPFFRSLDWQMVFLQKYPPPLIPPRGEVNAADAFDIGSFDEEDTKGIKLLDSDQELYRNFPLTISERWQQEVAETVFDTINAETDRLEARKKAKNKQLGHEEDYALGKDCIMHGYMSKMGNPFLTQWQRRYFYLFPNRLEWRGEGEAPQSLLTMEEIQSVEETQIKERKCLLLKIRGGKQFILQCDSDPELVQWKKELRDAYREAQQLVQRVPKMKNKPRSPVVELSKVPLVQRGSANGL
Conditions: earlier work; cited from earlier work

## Cc1[nH]c(/C=C2\C(=O)Nc3ccc(C(=O)N[C@H](C)c4ccc(F)cc4)cc32)c(C)c1NC(=O)CCl [compound 1]
  IC50: 1.2 µM
